{
  "source": "paper PMC12076163",
  "about": "(Chemical Science, 2025)",
  "target": "hen egg-white lysozyme (Gallus gallus, UniProt P00698)",
  "assay": "1H–[…] HMQC NMR of caged lysozyme with cage-tethered GlcNAc",
  "format": "biochemical",
  "data": [
    {"smiles": "CC(=O)N[C@H]1C(O)O[C@H](CO)[C@@H](O)[C@@H]1O", "note": "(stereo partly shown) [GlcNAc, N-acetylglucosamine]", "values": [
      {"measurement": "Kd", "result": 6, "unit": "µM"}
    ]}
  ]
}
